Measurements: patent US20250032476A1, “ALPHA-2A ADRENERGIC RECEPTOR MODULATORS AND USES THEREOF” (The Regents of the University of California, priority 2021, published 2025)

Key:
[1] = target: ALPHA-2A ADRENERGIC RECEPTOR (Homo sapiens (Human), UniProt P08913); assay: Gi recruitment (G protein); format: cell-based; conditions: Gi recruitment
analgesia in vivo = conditions: result in words, Table 6
human α2AAR [2] = target: T1, human α2AAR (Homo sapiens (Human), UniProt P08913); assay: β-arrestin-2 recruitment, BRET biosensor assay in HEK293T cells; conditions: HEK-293T
α2AAR F427^7.39 mutant = α2AAR F427^7.39 mutant (Homo sapiens (Human), UniProt P08913, F427A); assay: Gi activation (BRET) at α2AAR F427^7.39 mutant; format: cell-based
Protocol: Investigating the sensitivity of selected ligands to the receptor mutants α2AAR-D128^3.32A, α2AAR-D128^3.32T, α2AAR-D128^3.32L, α2AAR-S215^5.42A, α2AAR-Y409^6.55A, α2AAR-Y409^6.55T, α2AAR-Y409^6.55F, α2AAR-F427^7.39F, α2AAR-Y431^7.43A, and α2AAR-Y431^7.43F was determined by monitored G protein stimulation as described above transfecting the appropriate receptor together with Gαi1-RLucII and Gβ1/Gγ1-GFP10. […] Three to ten experiments were done in duplicate.
The sensitivity of selected ligands to the receptor mutants α2AAR-D128^3.32A, α2AAR-D128^3.32T, α2AAR-D128^3.32L, α2AAR-S215^5.42A, α2AAR-Y409^6.55A, α2AAR-Y409^6.55T, α2AAR-Y409^6.55F, α2AAR-F427^7.39F, α2AAR-Y431^7.43A, and α2AAR-Y431^7.43F was monitored by G protein activation as described above transfecting the appropriate receptor together with Gαi1-RLucII and Gβ1/Gγ2-GFP10. […] Similarly, the effect of the α2AAR-D128^3.32A, α2AAR-S215^5.42A, α2AAR-Y409^6.55A, α2AAR-Y409^6.55F, α2AAR-F427^7.39F, α2AAR-Y431^7.43A, and α2AAR-Y431^7.43F mutations on arrestin recruitment was evaluated as described above transfecting the appropriate receptor together with CAAX-rGFP, GRK2 and β-arrestin-2-RLucII. Data was analyzed as ligand induced changes in BRET compared to vehicle (deltaBRET). Three to seven experiments were done in duplicate.

human α2AAR [3] = target: T1, human α2AAR; assay: DiscoverX HitHunter cAMP G-protein activation assay
SNI mice = assay: Spared-nerve injury (SNI) model of neuropathic pain, von Frey mechanical thresholds; format: in vivo
Protocol: Spared-nerve injury (SNI) model of neuropathic pain. Under isoflurane anesthesia, two of the three branches of the sciatic nerve were ligated and transected distally, leaving the sural nerve intact. Behavior was tested 7 to 14 days after injury and in situ hybridization was performed one week post-injury.

human α2AAR [4] = target: T1, human α2AAR; assay: Gαi G protein activation, BRET biosensor assay in HEK293T cells; conditions: for Emax: HEK-293T
human α2AAR [5] = target: T1, human α2AAR; assay: α2AAR internalization assay with rGFP-CAAX and rGFP-FYVE biosensors; format: cell-based; conditions: α2AAR-RlucII/rGFP-CAAX biosensor

ALPHA-2A ADRENERGIC RECEPTOR, sequence (P08913 whole entry): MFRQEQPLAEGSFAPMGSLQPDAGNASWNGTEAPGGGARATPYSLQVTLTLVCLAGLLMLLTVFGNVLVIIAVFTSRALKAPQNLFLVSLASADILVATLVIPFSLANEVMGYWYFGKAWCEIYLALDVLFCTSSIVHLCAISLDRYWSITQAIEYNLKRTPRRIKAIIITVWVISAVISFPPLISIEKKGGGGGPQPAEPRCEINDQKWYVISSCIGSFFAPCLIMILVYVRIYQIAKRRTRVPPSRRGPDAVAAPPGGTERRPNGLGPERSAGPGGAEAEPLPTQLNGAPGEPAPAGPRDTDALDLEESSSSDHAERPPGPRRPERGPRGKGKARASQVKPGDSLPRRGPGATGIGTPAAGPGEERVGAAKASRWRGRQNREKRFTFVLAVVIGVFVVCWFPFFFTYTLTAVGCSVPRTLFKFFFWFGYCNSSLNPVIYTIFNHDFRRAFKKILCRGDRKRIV
T1 sequence (P08913 whole entry): as above
α2AAR F427^7.39 mutant, sequence (P08913 whole entry F427A): as the sequence (P08913 whole entry) above, with F427A counted along it

functional classification (agonist / weak agonist) ([1]; Table 6, result in words): agonist
EC50 ([1]; Table 6, read-out: EC50): 4.1 nM
Emax ([1]; Table 6, read-out: Emax (%)): 89%
Emax (human α2AAR [2]; read-out: β-Arr-2 Emax @ 0.1 mM): 10%
Emax at 100 µM (human α2AAR [2]; read-out: β-arrestin-2 Emax @ 0.1 mM): 10 ± 7%
Gi activity at F427^7.39 substitution (α2AAR F427^7.39 mutant): eliminated
EC50 (human α2AAR [3]): 18 nM
Emax (human α2AAR [3]; read-out: Gi/o Emax): 96%
Fold increased Gi potency compared to ‘9087 (human α2AAR [4]): 13 fold
EC50 (human α2AAR [4]; Gi EC50 ± SE, BRET biosensor, human α2AAR (Table 3)): 4.1 nM
EC50 (human α2AAR [4]; Gαi EC50, BRET biosensor, HEK293T, human α2AAR): 4.1 nM
Emax (human α2AAR [4]; read-out: Gi Emax ± SEM): 93%
Emax (human α2AAR [4]; read-out: Gαi Emax): 93%
Disappearance of α2AAR from the plasma membrane (internalization) (human α2AAR [5]): no effect
Compound: Fc1cccc2c(Nc3ccncc3)cccc12 [Compound 7075, N-(5-fluoronaphthalen-1-yl)pyridin-4-amine]
analgesic in vivo (analgesia in vivo): analgesic in vivo
Effect of atipamezole on the agonist's effect in SNI mice (SNI mice; atipamezole 2 mg/kg, 15 minutes prior): reversed by atipamezole
Mechanical thresholds / anti-allodynic effect in SNI mice (SNI mice; systemic injection): exhibited anti-allodynic effects
Reversal of mechanical hypersensitivity in SNI mice (SNI mice; systemic injection): completely reversed the mechanical hypersensitivity
